Measured values taken from ChEMBL document CHEMBL1136696, “Azalide 3,6-ketals: antibacterial activity and structure-activity relationships of aryl and hetero aryl substituted analogues” (Bioorg Med Chem Lett, 2003).
In brackets after ≈: the same amount, converted by molar mass.

Tests used:
Format in all cases: functional
[1] = tested on: Escherichia coli; assay: In vitro antibacterial activity against Escherichia coli 51A0150
[2] = tested on: Staphylococcus aureus; assay: In vitro antibacterial activity against Staphylococcus aureus 01A0758
[3] = tested on: Pasteurella multocida; assay: In vitro antibacterial activity against Pasteurella multocida 59A0067

Compound	MIC [1]	MIC [2]	MIC [3]
CC[C@H]1OC(=O)[C@H](C)[C@H]2OC3(CCN(c4ccc(C(=O)OCc5ccccc5)c(C(F)(F)F)c4)CC3)O[C@](C)(C[C@@H](C)CN(C)[C@H](C)[C@@H](O)[C@]1(C)O)[C@H](O[C@@H]1O[C@H](C)CC(N(C)C)[C@H]1O)[C@H]2C (stereo partly drawn)	3.13 µg/mL (≈ 3.29 µM)	0.78 µg/mL (≈ 0.821 µM)	0.39 µg/mL (≈ 0.41 µM)
CC[C@H]1OC(=O)[C@H](C)[C@H]2OC3(CCN(c4ccc([N+](=O)[O-])c(N)n4)CC3)O[C@](C)(C[C@@H](C)CN[C@H](C)[C@@H](O)[C@]1(C)O)[C@H](O[C@@H]1O[C@H](C)CC(N(C)C)[C@H]1O)[C@H]2C (stereo partly drawn)	3.13 µg/mL (≈ 3.94 µM)	1.56 µg/mL (≈ 1.96 µM)	0.1 µg/mL (≈ 0.126 µM)
CC[C@H]1OC(=O)[C@H](C)[C@H]2OC3(CCN(c4ncc(C(=O)OCc5ccccc5)c(C(F)(F)F)n4)CC3)O[C@](C)(C[C@@H](C)CN[C@H](C)[C@@H](O)[C@]1(C)O)[C@H](O[C@@H]1O[C@H](C)CC(N(C)C)[C@H]1O)[C@H]2C (stereo partly drawn)	> 50 µg/mL	0.78 µg/mL (≈ 0.831 µM)	> 50 µg/mL
CC[C@H]1OC(=O)[C@H](C)[C@H]2OC3(CCN(c4nc5ccccc5[nH]4)CC3)O[C@](C)(C[C@@H](C)CN(C)[C@H](C)[C@@H](O)[C@]1(C)O)[C@H](O[C@@H]1O[C@H](C)CC(N(C)C)[C@H]1O)[C@H]2C (stereo partly drawn)	1.56 µg/mL (≈ 1.98 µM)	3.13 µg/mL (≈ 3.97 µM)	0.1 µg/mL (≈ 0.127 µM)
CC[C@H]1OC(=O)[C@H](C)[C@H]2OC3(CCN(c4ccc(C(=O)OCc5ccccc5)cc4)CC3)O[C@](C)(C[C@@H](C)CN(C)[C@H](C)[C@@H](O)[C@]1(C)O)[C@H](O[C@@H]1O[C@H](C)CC(N(C)C)[C@H]1O)[C@H]2C (stereo partly drawn)	3.13 µg/mL (≈ 3.55 µM)	3.13 µg/mL (≈ 3.55 µM)	0.39 µg/mL (≈ 0.442 µM)
CC[C@H]1OC(=O)[C@H](C)[C@H]2OC3(CCN(c4ccc(C(F)(F)F)cn4)CC3)O[C@](C)(C[C@@H](C)CN[C@H](C)[C@@H](O)[C@]1(C)O)[C@H](O[C@@H]1O[C@H](C)CC(N(C)C)[C@H]1O)[C@H]2C (stereo partly drawn)	12.5 µg/mL (≈ 15.6 µM)	1.56 µg/mL (≈ 1.94 µM)	0.78 µg/mL (≈ 0.971 µM)
CC[C@H]1OC(=O)[C@H](C)C2OC3(CCNCC3)O[C@](C)(C[C@@H](C)CN(C)[C@H](C)[C@@H](O)[C@]1(C)O)[C@H](O[C@@H]1O[C@H](C)C[C@H](N(C)C)[C@H]1O)[C@H]2C	0.39 µg/mL (≈ 0.58 µM)	6.25 µg/mL (≈ 9.3 µM)	< 0.05 µg/mL
CC[C@H]1OC(=O)[C@H](C)[C@H]2OC3(CCN(c4ccc([N+](=O)[O-])cc4)CC3)O[C@](C)(C[C@@H](C)CN(C)[C@H](C)[C@@H](O)[C@]1(C)O)[C@H](O[C@@H]1O[C@H](C)CC(N(C)C)[C@H]1O)[C@H]2C (stereo partly drawn)	6.25 µg/mL (≈ 7.88 µM)	1.56 µg/mL (≈ 1.97 µM)	0.39 µg/mL (≈ 0.492 µM)
CC[C@H]1OC(=O)[C@H](C)[C@H]2OC3(CCN(c4ccc(N)cc4)CC3)O[C@](C)(C[C@@H](C)CN(C)[C@H](C)[C@@H](O)[C@]1(C)O)[C@H](O[C@@H]1O[C@H](C)CC(N(C)C)[C@H]1O)[C@H]2C (stereo partly drawn)	12.5 µg/mL (≈ 16.4 µM)	6.35 µg/mL (≈ 8.32 µM)	1.56 µg/mL (≈ 2.04 µM)
CC[C@H]1OC(=O)[C@H](C)[C@H]2OC3(CCN(c4cc(OC)nc(OC)n4)CC3)O[C@](C)(C[C@@H](C)CN[C@H](C)[C@@H](O)[C@]1(C)O)[C@H](O[C@@H]1O[C@H](C)CC(N(C)C)[C@H]1O)[C@H]2C (stereo partly drawn)	3.13 µg/mL (≈ 3.93 µM)	1.56 µg/mL (≈ 1.96 µM)	0.2 µg/mL (≈ 0.251 µM)
CC[C@H]1OC(=O)[C@H](C)[C@H]2OC3(CCN(c4cc(C)c([N+](=O)[O-])cn4)CC3)O[C@](C)(C[C@@H](C)CN[C@H](C)[C@@H](O)[C@]1(C)O)[C@H](O[C@@H]1O[C@H](C)CC(N(C)C)[C@H]1O)[C@H]2C (stereo partly drawn)	6.25 µg/mL (≈ 7.87 µM)	0.78 µg/mL (≈ 0.982 µM)	1.56 µg/mL (≈ 1.96 µM)
CC[C@H]1OC(=O)[C@H](C)[C@H]2OC3(CCN(c4ncc(C(=O)OCc5ccccc5)c(C(F)(F)F)n4)CC3)O[C@](C)(C[C@@H](C)CN(C)[C@H](C)[C@@H](O)[C@]1(C)O)[C@H](O[C@@H]1O[C@H](C)CC(N(C)C)[C@H]1O)[C@H]2C (stereo partly drawn)	> 50 µg/mL	1.17 µg/mL (≈ 1.23 µM)	> 50 µg/mL
CC[C@H]1OC(=O)[C@H](C)[C@H]2OC3(CCN(c4ncccc4[N+](=O)[O-])CC3)O[C@](C)(C[C@@H](C)CN[C@H](C)[C@@H](O)[C@]1(C)O)[C@H](O[C@@H]1O[C@H](C)CC(N(C)C)[C@H]1O)[C@H]2C (stereo partly drawn)	6.25 µg/mL (≈ 8.01 µM)	0.78 µg/mL (≈ 1 µM)	0.2 µg/mL (≈ 0.256 µM)
CC[C@H]1OC(=O)[C@H](C)[C@H]2OC3(CCN(c4ccc(NC(=O)c5ccccc5)cc4)CC3)O[C@](C)(C[C@@H](C)CN(C)[C@H](C)[C@@H](O)[C@]1(C)O)[C@H](O[C@@H]1O[C@H](C)CC(N(C)C)[C@H]1O)[C@H]2C (stereo partly drawn)	50 µg/mL (≈ 57.7 µM)	12.5 µg/mL (≈ 14.4 µM)	1.56 µg/mL (≈ 1.8 µM)
CC[C@H]1OC(=O)[C@H](C)[C@H]2OC3(CCN(c4nccs4)CC3)O[C@](C)(C[C@@H](C)CN(C)[C@H](C)[C@@H](O)[C@]1(C)O)[C@H](O[C@@H]1O[C@H](C)CC(N(C)C)[C@H]1O)[C@H]2C (stereo partly drawn)	3.13 µg/mL (≈ 4.15 µM)	3.13 µg/mL (≈ 4.15 µM)	0.39 µg/mL (≈ 0.517 µM)
CC[C@H]1OC(=O)[C@H](C)[C@H]2OC3(CCN(c4nc(C)ccc4C#N)CC3)O[C@](C)(C[C@@H](C)CN[C@H](C)[C@@H](O)[C@]1(C)O)[C@H](O[C@@H]1O[C@H](C)CC(N(C)C)[C@H]1O)[C@H]2C (stereo partly drawn)	6.25 µg/mL (≈ 8.07 µM)	0.78 µg/mL (≈ 1.01 µM)	0.78 µg/mL (≈ 1.01 µM)
CC[C@H]1OC(=O)[C@H](C)[C@H]2OC3(CCN(c4ccc([N+](=O)[O-])cn4)CC3)O[C@](C)(C[C@@H](C)CN(C)[C@H](C)[C@@H](O)[C@]1(C)O)[C@H](O[C@@H]1O[C@H](C)CC(N(C)C)[C@H]1O)[C@H]2C (stereo partly drawn)	6.25 µg/mL (≈ 7.87 µM)	3.13 µg/mL (≈ 3.94 µM)	0.39 µg/mL (≈ 0.491 µM)
CC[C@H]1OC(=O)[C@H](C)[C@H]2OC3(CCN(c4ccc(C(N)=O)cn4)CC3)O[C@](C)(C[C@@H](C)CN[C@H](C)[C@@H](O)[C@]1(C)O)[C@H](O[C@@H]1O[C@H](C)CC(N(C)C)[C@H]1O)[C@H]2C (stereo partly drawn)	6.25 µg/mL (≈ 8.03 µM)	1.56 µg/mL (≈ 2.01 µM)	0.2 µg/mL (≈ 0.257 µM)
CC[C@H]1OC(=O)[C@H](C)[C@H]2OC3(CCN(c4ccc(C#N)cn4)CC3)O[C@](C)(C[C@@H](C)CN[C@H](C)[C@@H](O)[C@]1(C)O)[C@H](O[C@@H]1O[C@H](C)CC(N(C)C)[C@H]1O)[C@H]2C (stereo partly drawn)	6.25 µg/mL (≈ 8.22 µM)	1.56 µg/mL (≈ 2.05 µM)	0.2 µg/mL (≈ 0.263 µM)
CC[C@H]1OC(=O)[C@H](C)[C@H]2OC3(CCN(c4cc(CO)cc(Cl)n4)CC3)O[C@](C)(C[C@@H](C)CN[C@H](C)[C@@H](O)[C@]1(C)O)[C@H](O[C@@H]1O[C@H](C)CC(N(C)C)[C@H]1O)[C@H]2C (stereo partly drawn)	0.78 µg/mL (≈ 0.976 µM)	1.56 µg/mL (≈ 1.95 µM)	0.2 µg/mL (≈ 0.25 µM)
CC[C@H]1OC(=O)[C@H](C)[C@H]2OC3(CCN(c4cncc(Cl)n4)CC3)O[C@](C)(C[C@@H](C)CN(C)[C@H](C)[C@@H](O)[C@]1(C)O)[C@H](O[C@@H]1O[C@H](C)CC(N(C)C)[C@H]1O)[C@H]2C (stereo partly drawn)	6.25 µg/mL (≈ 7.97 µM)	1.56 µg/mL (≈ 1.99 µM)	0.39 µg/mL (≈ 0.497 µM)
CC[C@H]1OC(=O)[C@H](C)[C@H]2OC3(CCN(c4ccc(C(=O)N(C)c5ccncc5)cc4F)CC3)O[C@](C)(C[C@@H](C)CN(C)[C@H](C)[C@@H](O)[C@]1(C)O)[C@H](O[C@@H]1O[C@H](C)CC(N(C)C)[C@H]1O)[C@H]2C (stereo partly drawn)	1.56 µg/mL (≈ 1.73 µM)	3.13 µg/mL (≈ 3.48 µM)	0.2 µg/mL (≈ 0.222 µM)
CC[C@H]1OC(=O)[C@H](C)[C@H]2OC3(CCN(c4ccc(C(=O)OCc5ccccc5)c(C(F)(F)F)c4)CC3)O[C@](C)(C[C@@H](C)CN[C@H](C)[C@@H](O)[C@]1(C)O)[C@H](O[C@@H]1O[C@H](C)CC(N(C)C)[C@H]1O)[C@H]2C (stereo partly drawn)	> 50 µg/mL	0.78 µg/mL (≈ 0.833 µM)	6.25 µg/mL (≈ 6.68 µM)
CC[C@H]1OC(=O)[C@H](C)[C@H]2OC3(CCN(c4nccc(C(F)(F)F)n4)CC3)O[C@](C)(C[C@@H](C)CN[C@H](C)[C@@H](O)[C@]1(C)O)[C@H](O[C@@H]1O[C@H](C)CC(N(C)C)[C@H]1O)[C@H]2C (stereo partly drawn)	3.13 µg/mL (≈ 3.89 µM)	1.56 µg/mL (≈ 1.94 µM)	0.78 µg/mL (≈ 0.97 µM)
CC[C@H]1OC(=O)[C@H](C)[C@H]2OC3(CCN(c4ncc(C(=O)NCc5ccncc5)cn4)CC3)O[C@](C)(C[C@@H](C)CN(C)[C@H](C)[C@@H](O)[C@]1(C)O)[C@H](O[C@@H]1O[C@H](C)CC(N(C)C)[C@H]1O)[C@H]2C (stereo partly drawn)	> 50 µg/mL	3.52 µg/mL (≈ 3.98 µM)	> 50 µg/mL
CC[C@H]1OC(=O)[C@H](C)[C@H]2OC3(CCN(c4ccc(C)nn4)CC3)O[C@](C)(C[C@@H](C)CN(C)[C@H](C)[C@@H](O)[C@]1(C)O)[C@H](O[C@@H]1O[C@H](C)CC(N(C)C)[C@H]1O)[C@H]2C (stereo partly drawn)	3.13 µg/mL (≈ 4.1 µM)	6.25 µg/mL (≈ 8.18 µM)	0.2 µg/mL (≈ 0.262 µM)
